# Reference: PubChem BioAssay AID2060497 (Molecular Pharmacology Branch, DTP, NCI, 2025)
# Test system: 317291-083-R-J1-PDC complex spheroids, viability
# Test: Anticancer human tumor 317291-083-R-J1-PDC patient-derived soft tissue sarcoma cell line growth inhibition [GQUAD]
# Settings: for IC50: curve of first compound; for viability, T/C: stronger effect = lower value
# Description: DNA G-quadruplex Stabilizer Agents in Combinations in Complex Spheroids
# A high-throughput screen of multi-cell type tumor spheroids was designed to identify active combinations of DNA G-quadruplex stabilizer agents and targeted small molecules. Complex spheroids include a stromal component modeled by human endothelial cells (HUVEC) and fibroblasts modeled by human mesenchymal stem cells (MSCs). The concentration ranges selected for each drug and investigational agent were based upon clinically achievable concentrations if the clinical Cmax of the agent was known.
# Compounds. The drugs and investigational agents: pidnarulex (CX-5461; NSC782164), APTO-253 (NSC789042), BRACO-19 (NSC847499), peposertib (NSC802822), ceralasertib (NSC780249), elimusertib (NSC800525), camonsertib (NSC841442), AZD-1390 (NSC803789), olaparib (NSC753686), talazoparib (NSC767125), ART-558 (NSC835418), sotorasib (NSC818433), MRTX-1133 (NSC836407), SN-38 (NSC673596), topotecan (NSC609699), etoposide (NSC141540), doxorubicin (NSC123127), gemcitabine (NSC613327), 5-fluorouracil (NSC19893), paclitaxel (NSC125973), vemurafenib (NSC761431), panobinostat (NSC761190), R-306465 (JNJ-16241199; NSC773264), adavosertib (NSC754352), TP-3654 (NSC805149), carboplatin (NSC241240), KSQ-4279 (NSC840948), and staurosporine (NSC755774) were obtained from the National Cancer Institute (NCI) Developmental Therapeutics Program Chemical Repository (34). The FDA-approved anticancer drug set is available from the NCI Developmental Therapeutics Program. […] The stock solutions were prepared in dimethyl sulfoxide (DMSO, Sigma-Aldrich, St. Louis, MO, cat. D2650) at 800-fold the tested concentration and stored at -70 degrees C prior to their use. All drugs and investigational agents were tested over a range starting from a high concentration at or near the clinical Cmax and decreasing in half-log increments. If the clinical Cmax for an agent had not been determined, the highest concentration tested was 10 microM.
# 2.3 Cell Culture. All cells were maintained in an incubator at 37 degrees C and 5% CO2 with 95% humidity. The PDC lines were cultured according to standard operating procedures established by the NCI PDMR. All PDCs were thawed and cultured in Matrigel-coated flasks prepared with a working solution of 1X Ham's F-12 nutrient mix, without supplementation (Invitrogen, cat. 11765054), 100 U/mL penicillin-streptomycin (Invitrogen, cat. 15140122), and 2.5% Matrigel (Corning Inc., cat. 354248) for the first three passages. The 857933-349-R-J2-PDC line was cultured in 6C/Colon 1B media, which includes advanced DMEM/F-12 (Thermo Fisher Scientific, cat. 12634028), 10 mM HEPES (Thermo Fisher Scientific, cat. 15630080), 1X GlutaMAX supplement (Thermo Fisher Scientific, cat. 35050061), 0.1 mg/mL primocin (InvivoGen, cat. ant-pm-2), 10% defined fetal bovine serum, heat inactivated (HyClone Laboratories Inc., cat. SH30070.03HI), 50% L-WRN conditioned media (ATCC, cat. CRL-3276), 1.25 mM N-Acetyl-L-cysteine (Sigma-Aldrich, cat. A9165), 10 mM nicotinamide (Sigma-Aldrich, cat. N0636), 1X B-27 supplement (Thermo Fisher Scientific, cat. 17504044), 1X N-2 supplement (Thermo Fisher Scientific, cat. 17502048), 10 microM Y-27632 dihydrochloride (Tocris Bioscience, cat. 1254), and 50 ng/mL human EGF recombinant protein (Thermo Fisher Scientific, cat. PHG0311). The 485176-168-R4-J1-PDC line was cultured in Panc media, which includes all 6C/Colon 1B media components plus 100 ng/mL human FGF-10 (Thermo Fisher Scientific, cat. 100-26), 500 nM SB-431542 (Selleckchem, cat. S1067), and gastrin (Tocris, cat. 3006).
# […]
# [1] = second compound 0.0316 µM, first compound 0.0316 µM
# [2] = second compound 0.0316 µM, first compound 0.1 µM
# [3] = second compound 0.0316 µM, first compound 0.316 µM
# [4] = second compound 0.0316 µM, first compound 1 µM
# [5] = second compound 0.0316 µM, first compound 3.16 µM
# [6] = second compound 0.0316 µM, first compound 10 µM
# [7] = second compound 0.1 µM, first compound 0.0316 µM
# [8] = second compound 0.1 µM, first compound 0.1 µM
# [9] = second compound 0.1 µM, first compound 0.316 µM
# [10] = second compound 0.1 µM, first compound 1 µM
# [11] = second compound 0.1 µM, first compound 3.16 µM
# [12] = second compound 0.1 µM, first compound 10 µM
# [13] = second compound 0.316 µM, first compound 0.0316 µM
# [14] = second compound 0.316 µM, first compound 0.1 µM
# [15] = second compound 0.316 µM, first compound 0.316 µM
# [16] = second compound 0.316 µM, first compound 1 µM
# [17] = second compound 0.316 µM, first compound 3.16 µM
# [18] = second compound 0.316 µM, first compound 10 µM
# [19] = second compound 1 µM, first compound 0.0316 µM
# [20] = second compound 1 µM, first compound 0.1 µM
# [21] = second compound 1 µM, first compound 0.316 µM
# [22] = second compound 1 µM, first compound 1 µM
# [23] = second compound 1 µM, first compound 3.16 µM
# [24] = second compound 1 µM, first compound 10 µM
# [25] = second compound 3.16 µM, first compound 0.0316 µM
# [26] = second compound 3.16 µM, first compound 0.1 µM
# [27] = second compound 3.16 µM, first compound 0.316 µM
# [28] = second compound 3.16 µM, first compound 1 µM
# [29] = second compound 3.16 µM, first compound 3.16 µM
# [30] = second compound 3.16 µM, first compound 10 µM
# [31] = second compound 10 µM, first compound 0.0316 µM
# [32] = second compound 10 µM, first compound 0.1 µM
# [33] = second compound 10 µM, first compound 0.316 µM
# [34] = second compound 10 µM, first compound 1 µM
# [35] = second compound 10 µM, first compound 3.16 µM
# [36] = second compound 10 µM, first compound 10 µM
# 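Further: spheroids exposed to compounds for one week before readout.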
# 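Wherever viability, T/C is given: percent viability relative to DMSO vehicle wells taken as 100%.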
structure (smiles),measurement,setting,value
COc1ncnc(C2CC2)c1-c1ncc2cnn(Cc3ccc(-c4nc(C(F)(F)F)cn4C(C)C)cc3)c2n1 + Cc1[nH]c2ccc(F)cc2c1-c1nc2c3cccnc3c3ncccc3c2[nH]1,IC50,second compound 0.0316 µM,> 10 µM
same,IC50,second compound 0.1 µM,> 10 µM
same,IC50,second compound 0.316 µM,0.2 µM
same,IC50,second compound 1 µM,< 0.0316 µM
same,IC50,second compound 3.16 µM,< 0.0316 µM
same,IC50,second compound 10 µM,< 0.0316 µM
same,"viability, T/C",[1],110%
same,"viability, T/C",[2],77.8%
same,"viability, T/C",[3],84.5%
same,"viability, T/C",[4],72.2%
same,"viability, T/C",[5],64.3%
same,"viability, T/C",[6],92.3%
same,"viability, T/C",[7],85.7%
same,"viability, T/C",[8],96.5%
same,"viability, T/C",[9],68.3%
same,"viability, T/C",[10],63.7%
same,"viability, T/C",[11],93.4%
same,"viability, T/C",[12],65%
same,"viability, T/C",[13],63.3%
same,"viability, T/C",[14],52.8%
same,"viability, T/C",[15],50.4%
same,"viability, T/C",[16],37.2%
same,"viability, T/C",[17],46%
same,"viability, T/C",[18],35.2%
same,"viability, T/C",[19],41.4%
same,"viability, T/C",[20],37.9%
same,"viability, T/C",[21],35.3%
same,"viability, T/C",[22],41.2%
same,"viability, T/C",[23],40.5%
same,"viability, T/C",[24],39.8%
same,"viability, T/C",[25],35.1%
same,"viability, T/C",[26],27.6%
same,"viability, T/C",[27],27.1%
same,"viability, T/C",[28],23.3%
same,"viability, T/C",[29],23.2%
same,"viability, T/C",[30],30.5%
same,"viability, T/C",[31],35.8%
same,"viability, T/C",[32],35.8%
same,"viability, T/C",[33],31.1%
same,"viability, T/C",[34],33.8%
same,"viability, T/C",[35],33.5%
same,"viability, T/C",[36],28.3%
O=C(c1cc(Cc2n[nH]c(=O)c3ccccc23)ccc1F)N1CCN(C(=O)C2CC2)CC1 + CN(C)c1ccc(Nc2c3ccc(NC(=O)CCN4CCCC4)cc3nc3cc(NC(=O)CCN4CCCC4)ccc23)cc1,IC50,second compound 0.0316 µM,8.52 µM
same,IC50,second compound 0.1 µM,8.53 µM
same,IC50,second compound 0.316 µM,9.79 µM
same,IC50,second compound 1 µM,< 0.0316 µM
same,IC50,second compound 3.16 µM,< 0.0316 µM
same,IC50,second compound 10 µM,< 0.0316 µM
same,"viability, T/C",[1],107%
same,"viability, T/C",[2],88.7%
same,"viability, T/C",[3],93.2%
same,"viability, T/C",[4],92.8%
same,"viability, T/C",[5],84.9%
same,"viability, T/C",[6],44.1%
same,"viability, T/C",[7],111%
same,"viability, T/C",[8],93.4%
same,"viability, T/C",[9],101%
same,"viability, T/C",[10],96.7%
same,"viability, T/C",[11],76.3%
same,"viability, T/C",[12],45.8%
same,"viability, T/C",[13],84.4%
same,"viability, T/C",[14],83.3%
same,"viability, T/C",[15],83.8%
same,"viability, T/C",[16],67.6%
same,"viability, T/C",[17],73.5%
same,"viability, T/C",[18],48%
same,"viability, T/C",[19],55%
same,"viability, T/C",[20],36.5%
same,"viability, T/C",[21],44.2%
same,"viability, T/C",[22],48.1%
same,"viability, T/C",[23],52.3%
same,"viability, T/C",[24],45.8%
same,"viability, T/C",[25],34.7%
same,"viability, T/C",[26],27.9%
same,"viability, T/C",[27],22.8%
same,"viability, T/C",[28],21.4%
same,"viability, T/C",[29],16.6%
same,"viability, T/C",[30],15.9%
same,"viability, T/C",[31],5%
same,"viability, T/C",[32],12.6%
same,"viability, T/C",[33],14.9%
same,"viability, T/C",[34],11.7%
same,"viability, T/C",[35],31.9%
same,"viability, T/C",[36],6.71%
